In patent US20100267796A1, “THERAPEUTIC AGENT FOR IRRITABLE BOWEL SYNDROME” (KYOWA HAKKO KOGYO CO., LTD., priority 2006, published 2010):

What was measured:
[1] = tested on: adenosine uptake in HEK293 cells; test: Adenosine uptake inhibitory activity in HEK293 cells ([3H]adenosine uptake); type: cell-based; settings: Homo sapiens, 1 min, [3H]adenosine uptake relative to 100% of control, HEK293 cells
Protocol: A test was conducted according to the method of Leung et al. [Biochemical Pharmacology, Vol. 70, pp. 355-362 (2005)]. HEK293 cells (ATCC, Registration No. CRL-1537) were subcultured in a Dulbecco's modified Eagle's medium (manufactured by Invitrogen Corporation) containing 10% of fatal calf serum in a CO2 incubator using a poly-L-lysine-coated 10-cm dish (manufactured by Asahi Techno Glass Corporation). The cultured cells were seeded in a poly-L-lysine-coated 24-well plate (manufactured by Asahi Techno Glass Corporation) and cultured until the cells become confluent. […] After incubation at room temperature for 15 minutes, 0.2 mL of a Na^+-free buffer containing 100 nmol/L of [^3H] adenosine (manufactured by GE Health Care Bioscience Corporation) and each compound at each of 50 nmol/L and 500 nmol/L was added to each well. After 1 minute, the reaction solution was removed with an aspirator, and the wells were washed twice with 0.5 mL of ice-cooled PBS (phosphate-buffered saline). Then, 0.5 mL of PBS containing 5% Triton X-100 was added to each well, and the cells were scraped with a scraper. The solution in each well was homogenized by passing through a 20 G injection needle ten times and transferred to a scintillation vial containing 4 mL of clear sol (manufactured by Nacalai Tesque Inc.). Further, the wells were washed with 0.5 mL of PBS containing 5% Triton X-100, and the washing solution was added to the same vial. After sufficient agitation, radioactivity was measured using a liquid scintillation counter (Aloka Co., Ltd., LSC-3500). A relative value to 100% of an uptake of a control was indicated by percentage.

[2] = tested on: loperamide-induced constipation; test: Activity on loperamide-induced constipation; type: in vivo, male SD rats; settings: doses of 0.01, 0.1 and 1 mg/kg p.o. 1 hour before loperamide 5 mg/kg; rats, n=15; vs. control group
Protocol: The therapeutic effect of the compounds of the present application on constipation was evaluated by the method described below. Compound 1-1 was used as a test compound.
To Compound 1-1, 0.5 w/v % methyl cellulose 400 (MC, manufactured by Wako Pure Chemical Industries, Ltd.) was added, followed by lightly mixing with a mixer (TTM-1, Shibata Scientific Technology Ltd.). Then, the resultant mixture was subjected to ultrasonic treatment (1 minute) with an ultrasonic cleaner (Sine Sonic UA100, Hitachi Kokusai Denki Engineering Co., Ltd.), and suspended by re-mixing with the mixer to prepare a suspension at a concentration of 0.2 mg/mL. […]
A day before the test, the rat tails were numbered for identification and the body weights were measured. […] The collected stools were dried (100° C., 6 hours) with a dryer (SH42, Yamato Scientific Co., Ltd.), and the weight was measured with an electronic balance (AB54, Mettler-Toledo AG). […]
With respect to the fecal amount, a dry weight was used, and an amount of stools for 0 to 8 hours was used as a measurement parameter. The fecal pellets were collected in a tare (aluminum foil) whose weight was previously measured, and the weight was calculated by subtracting the weight of the tare from the weight including the tare weight. […]

C[C@](O)(C(=O)Nc1cccc2c1C(=O)c1sccc1CS2(=O)=O)C(F)(F)F [Compound 1-1]
activity at 0.05 µM ([1]; 50 nmol/L compound, n=2): 68% | activity at 0.5 µM ([1]; 500 nmol/L compound): 29% | fecal amount (dry weight) 0 to 8 hours after the administration of loperamide [2]: significantly inhibits a decrease in fecal amount
